Measurements published in ChEMBL document CHEMBL1134875, “Binding modes of two novel dinucleotide inhibitors of HIV-1 integrase” (Bioorg Med Chem Lett, 2002).

Experiments:
[1] = biological target: T1, Human immunodeficiency virus type 1 integrase (Human immunodeficiency virus 1, UniProt Q7ZJM1); assay: Compound was tested for the inhibition HIV integrase strand transfer activity
[2] = biological target: T1, Human immunodeficiency virus type 1 integrase; assay: Compound was tested for the inhibition HIV integrase 3'-processing activity

T1 sequence (Q7ZJM1 whole entry): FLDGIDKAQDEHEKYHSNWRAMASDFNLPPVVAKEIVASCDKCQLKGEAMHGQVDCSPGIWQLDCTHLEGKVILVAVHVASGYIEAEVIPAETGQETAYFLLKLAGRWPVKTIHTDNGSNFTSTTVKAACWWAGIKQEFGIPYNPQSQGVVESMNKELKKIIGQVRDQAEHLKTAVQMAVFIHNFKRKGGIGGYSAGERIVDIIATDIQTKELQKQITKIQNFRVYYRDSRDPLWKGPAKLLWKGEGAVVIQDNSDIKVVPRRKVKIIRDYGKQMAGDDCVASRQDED

IC50 [1]: 25 µM
IC50 [2]: 19 µM
Structure (SMILES): Nc1ccn([C@H]2C[C@@H](O)[C@@H](COP(=O)(O)O[C@@H]3[C@H](COP(=O)(O)O)OC[C@@H]3n3cnc4c(N)ncnc43)O2)c(=O)n1
